Data as given in patent publication US20220056012A1, “AMORPHOUS FORM OF A MALT1 INHIBITOR AND FORMULATIONS THEREOF” (Janssen Pharmaceutica NV, priority 2020, published 2022).
One block for each molecule: values may come before it.

Assays:
Assay type in all cases: physicochemical
[1] = Dissolution in 900 mL FaSSIF medium at pH 6.5 (FIG. 20); settings: pH 6.5, capsules in blend
Procedure: FIG. 20: Dissolution rates of different compositions in 900 mL FaSSIF medium at pH 6.5. The different compositions are: 25 mg ASD capsule HPMC AS MG 1/3 in blend; 50 mg ASD capsule HPMC AS MG 1/1 in blend; 50 mg ASD capsule EL100-55 1/1 in blend; 50 mg LFHG PEG1500 (liquid filled) capsule; 100 mg capsule amorphous API in blend; 25 mg ASD capsule EL100-55 1/3 in blend; and 100 mg capsule crystalline API in blend.

[2] = Hygroscopicity of crystalline form
[3] = Crystalline conversion of isolated amorphous Compound A on storage
[4] = Glass transition temperature (Tg) by DSC, Tg vs % RH; settings: amorphous Compound A without polymer
Procedure: The Tg vs RH results for HPMCAS-LG amorphous SDDs (FIG. 18 and Table 10) show the Tg's range from 111 to 119° C. under dry conditions and are depressed down to 52 to 59° C. at 75% RH. Both dry and wet Tg increase with increased drug loading.

[5] = 2-phase (SGF/FaSSIF) miniaturized dissolution of films; settings: SGF-FaSSIF, 37° C., films with 200 μg Compound A
Procedure: In vitro, 2-phase (SGF/FaSSIF) miniaturized dissolution was performed, where the amount of dissolved compound A was monitored in function of time. Before starting the dissolution assay, the films were stored for one day at room temperature. By doing so, most of the residual solvent had evaporated. Actual dissolution experiments were performed in 96 1 mL glass vials using the Hamilton STAR plus liquid handling platform for both sampling and sample preparation. Before adding the dissolution media to the films, an equilibration time of approximately 60 minutes was needed to preheat the media to 37° C. After equilibration, 300 μL of preheated SGF (37° C., pH 1.3) was added to the amorphous solid dispersions. After 15 minutes of incubation in SGF, 600 μL of preheated concentrated FaSSIF (37° C., pH 10.5) was added to the samples. […] At predetermined time intervals, aliquots were withdrawn from the dissolution media and filtered through a 0.45 μm GHP membrane filter. Subsequently, the filtered solutions were quantitatively diluted (10×) with N-methylpyrrolidone (NMP) to prevent possible precipitation. The amount of dissolved compound A was determined by UPLC. Films were incubated at 37° C. throughout the entire assay. Experiments were performed in duplicate.

[6] = Stability of amorphous formulations by XRD at normal and accelerated conditions
Procedure: Stability of the prepared formulations of Compound A was measured by XRD at normal and accelerated conditions, showing that all the prepared formulations of the compound, be it alone or combined with a polymer, are amorphous.

dissolution rate [1]: dropped considerably
hygroscopicity [2]: hygroscopic behavior
Structure (SMILES): O=C(Nc1ccnc(C(F)(F)F)c1)c1cnn(-c2cccc3c(=O)[nH]ccc23)c1C(F)(F)F [Form I, 1-(1-oxo-1,2-dihydroisoquinolin-5-yl)-5-(trifluoromethyl)-N-[2-(trifluoromethyl)pyridin-4-yl]-1H-pyrazole-4-carboxamide]

solid state after storage (stability DSC data) ([3]; 6 MOS at 40°/75% RH, open-dish): still amorphous
crystalline conversion after exposure ([3]; 10% RH, 50° C., 28 days): no crystalline conversion
crystalline conversion after exposure ([3]; 75% RH, 40° C., open condition, 6 months): no crystalline conversion
crystalline conversion after exposure ([3]; 75% RH, 50° C., 28 days): no crystalline conversion
crystalline conversion after exposure ([3]; 75% RH, 50° C., closed condition, 6 months): no crystalline conversion
glass transition temperature [4]: 133 °C
glass transition temperature ([4]; listed as spray dried Compound A): 132 °C
initial release, concentration [5]: 60 to 80 µg/mL
XRD result ([6]; 40° C. closed 1M): amorph.
XRD result ([6]; 40° C. closed 2M): amorph.
XRD result ([6]; 40° C. closed 6M): amorph.
XRD result ([6]; 40° C./75% RH open 6M): amorph.
XRD result ([6]; 40° C/75% RH open 1M): amorph.
XRD result ([6]; 40° C/75% RH open 2M): amorph.
XRD result ([6]; 50° C. closed 1M): amorph.
XRD result ([6]; 50° C. closed 2M): amorph.
XRD result ([6]; 50° C. closed 6M): amorph.
XRD result ([6]; RT closed 1M): amorph.
XRD result ([6]; RT closed 2M): amorph.
XRD result ([6]; RT closed 6M): amorph.
XRD result ([6]; RT/56% RH open 1M): amorph.
XRD result ([6]; RT/56% RH open 2M): amorph.
XRD result ([6]; RT/56% RH open 6M): amorph.
XRD result ([6]; T0): amorph.
Structure (SMILES): O=C(Nc1ccnc(C(F)(F)F)c1)c1cnn(-c2cccc3c(=O)[nH]ccc23)c1C(F)(F)F [amorphous form of Compound A, 1-(1-oxo-1,2-dihydroisoquinolin-5-yl)-5-(trifluoromethyl)-N-[2-(trifluoromethyl)pyridin-4-yl]-1H-pyrazole-4-carboxamide]
